Data: US20250214977A1, “STAT6 INHIBITORS AND USES THEREOF” (Kymera Therapeutics, Inc., priority 2024, published 2025)

What follows are molecules tested on Phosphorylation of STAT6 in human PBMC (CD19+ B cells) (assay: Phosphorylated STAT6 (pSTAT6) flow cytometry assay in human PBMC, IL-4 stimulated). Details: compound 1 hour, 1 ng/ml IL-4 for 15 minutes, read-out: STAT6 IL4 pSTAT6 assay in PBMC: Average IC50.
Format: cell-based
Procedure: Example 2. Phosphorylated STAT6 (pSTAT6) Flow Cytometry Assay in Human PBMC
Phosphorylation of STAT6 in human PBMC was quantitatively measured using flow cytometry technology. Human PBMC were seeded in 96-well plates with a density of 0.3 to 0.5 million cells per well in 100 μl fresh media. Compounds were then added to the assay plates with a final top concentration of up to 30 μM in a 1:3 dilution series with total of 9 doses. The assay plates were incubated for 1 hour at 37° C. under 5% CO2. The cells were then stimulated with 1 ng/ml of IL-4 (R&D Systems, Cat #6507-IL) for 15 minutes, followed by fixation for 30 minutes at 4° C. Cells were spun down at 350 g for 5 minutes. The supernatant was removed and cells were washed once with FACS buffer. Cells were permeabilized with 90% MeOH/H2O for 30 minutes at 4° C., followed by one wash with FACS buffer. Non-specific binding were blocked with human Fc for 1 hour at 4 C, followed by one wash with FACS buffer. AF488 conjugated pSTAT6 antibody (BD Biosciences, Cat #612600, 1:100 dilution) and PE conjugated CD19 antibody (BD Biosciences, Cat #341103, 1:50 dilution) diluted in 100 μl FACS buffer was added to each well with overnight incubation at 4° C. Cells were then washed once with FACS buffer and resuspended in 200 μl of FACS buffer for flow cytometry to quantify pSTAT6 in CD19+ B cells. The data was analyzed by GraphPad Prism and the dose dependent pSTAT6 inhibition was fit using the four-parameter inhibitor vs. response nonlinear regression.
`CNc1ccc(-c2cc(C3=CCCN(C(=O)CCn4ccnn4)C3)cc3[nH]c(C(=O)N(C)C)cc23)cc1` [Example I-113] gave an IC50 of less than 0.1 µM.
`CN(C)C(=O)c1cc2cc(C3=CCCN(C(=O)Cn4cccn4)C3)ccc2o1` [Example I-261] was tested, and the IC50 was greater than 100 µM.
For `CN(C)C(=O)c1cc2cc(C3=CCCN(C(=O)[C@H]4Cc5ccc(O)cc5CN4)C3)ccc2o1` [Example I-239], the IC50 was greater than 100 µM.
`CN(C)C(=O)c1cc2ccc(C3=CCCN(C(=O)c4c[nH]nc4I)C3)cc2[nH]1` [Example I-34] was tested, and the IC50 was 10 to 100 µM.
With `C[C@H](Cn1ccnn1)C(=O)N1CCC=C(c2ccc3oc(C(=O)N(C)C)cc3c2)C1` (single isomer, unassigned) [Example I-228] the IC50 was 10 to 100 µM.
Work on `CN(C)C(=O)c1cc2ccc(C3=CCCN(C(=O)C4Cc5ccccc5CN4C=O)C3)cc2[nH]1` (stereo not shown) [Example I-202] yielded an IC50 of 0.1 to 1 µM.
With `CN(C)C(=O)c1cc2ccc(C3=CCCN(C(=O)CCC(=O)O)C3)cc2[nH]1` [Example I-112] the IC50 was greater than 100 µM.
`CC(=O)N1CCC(c2cccc3c2CC(C(=O)N2CCC=C(c4ccc5oc(C(=O)N(C)C)cc5c4)C2)N(C=O)C3)CC1` (stereo not shown) [Example I-180] showed an IC50 greater than 100 µM.
Molecule `CN(C)C(=O)c1cc2cc(C3=CCCN(C(=O)Cc4coc5ccccc45)C3)ccc2o1` [Example I-271] has an IC50 greater than 100 µM.
For `Cc1cccc(-c2ncccc2C(=O)N2CCC=C(c3ccc4cc(C(=O)N(C)C)[nH]c4c3)C2)c1` [Example I-86], the IC50 was greater than 100 µM.
`O=C(CCn1ccnn1)N1CCC=C(c2ccc3occc3c2)C1` [Example I-278] showed an IC50 greater than 100 µM.
Molecule `CN(C)C(=O)c1cc2cc(C3=CCCN(C(=O)CCn4ccnn4)C3)cc(CN3CCCCC3)c2o1` [Example I-185] has an IC50 of 10 to 100 µM.
With `CN(C)C(=O)c1cc2ccc(C3=CCCN(C(=O)CCS(=O)(=O)c4ccccc4)C3)cc2[nH]1` [Example I-66] the IC50 was 1 to 10 µM.
`CN(C)C(=O)c1cc2cc(C3=CCCN(C(=O)CCc4ncns4)C3)ccc2o1` [Example I-165] gave an IC50 greater than 100 µM.
For `CCOC(=O)N(CC(=O)N1CCC=C(c2ccc3cc(C(=O)N(C)C)[nH]c3c2)C1)Cc1ccco1` [Example I-81], the IC50 was greater than 100 µM.
`CN(C)C(=O)c1cc2cc([C@H]3CC[C@H](CO)N(C(=O)CCn4ccnn4)C3)ccc2o1` (single isomer, unassigned) [Example I-157] gave an IC50 greater than 100 µM.
`CN(C)C(=O)c1cc2ccc(C3=CCCN(C(=O)c4ccc(N5CCOCC5)c(F)c4)C3)cc2[nH]1` [Example I-158] gave an IC50 greater than 100 µM.
In the case of `NC(=O)c1cc2cc(C3=CCCN(C(=O)CCn4ccnn4)C3)ccc2o1` [Example I-213], the IC50 is reported as greater than 100 µM.
`COC(=O)C1CCC(c2ccc3oc(C(=O)N(C)C)cc3c2)CN1C(=O)CCn1ccnn1` (stereo not shown) [Example I-149] was tested, and the IC50 was greater than 100 µM.
Molecule `CCNC(Cn1ccnn1)C(=O)N1CCC=C(c2ccc3oc(C(=O)N(C)C)cc3c2)C1` (stereo not shown) [Example I-153] has an IC50 greater than 100 µM.
`CN(C)C(=O)c1cc2ccc(C3=CCCN(C(=O)c4cc5occc5n4-c4ccccc4)C3)cc2[nH]1` [Example I-102] showed an IC50 of 10 to 100 µM.
`CN(C)C(=O)c1cc2ccc(C3=CCCN(C(=O)C(CO)c4ccccc4)C3)cc2[nH]1` (stereo not shown) [Example I-159] was tested, and the IC50 was greater than 100 µM.
Molecule `CN(C)C(=O)c1cc2ccc(C3=CCCN(C(=O)c4ccc5c(n4)OCCO5)C3)cc2[nH]1` [Example I-58] has an IC50 greater than 100 µM.
With `Cc1nc(CC(=O)N2CCC=C(c3ccc4cc(C(=O)N(C)C)[nH]c4c3)C2)no1` [Example I-41] the IC50 was 10 to 100 µM.
In the case of `CN(C)C(=O)c1cc2cc(C3=CCCN(C(=O)CCc4ccccn4)C3)ccc2[nH]1` [Example I-200], the IC50 is reported as greater than 100 µM.
`CN(C)C(=O)c1cc2cc(C3=CCCN(C(=O)C4Cc5c(cccc5-c5ccc(O)cc5)CN4C=O)C3)ccc2o1` (stereo not shown) [Example I-187] gave an IC50 greater than 100 µM.
Work on `CN(C)C(=O)c1cc2cc(C3=CCCN(C(=O)CCc4ccccn4)C3)ccc2o1` [Example I-268] yielded an IC50 greater than 100 µM.
In the case of `CN(C)C(=O)c1cc2cc(C3=CCCN(C(=O)[C@@H](N)Cn4ccnn4)C3)ccc2o1` (single isomer, unassigned) [Example I-173], the IC50 is reported as greater than 100 µM.
In the case of `CC(=O)NC(Cn1ccnn1)C(=O)N1CCC=C(c2ccc3oc(C(=O)N(C)C)cc3c2)C1` (stereo not shown) [Example I-179], the IC50 is reported as greater than 100 µM.
For `CN(C)C(=O)c1cc2ccc(C3=CCCN(C(=O)Cn4cncn4)C3)cc2[nH]1` [Example I-36], the IC50 was 10 to 100 µM.
`CN(C)C(=O)c1cc2cc(C3=CCCN(C(=O)Cc4ccc5c(c4)OCCO5)C3)ccc2o1` [Example I-306] gave an IC50 greater than 100 µM.
For `CN(C)C(=O)c1cc2cc(C3=CCCN(C(=O)Cc4ccc5ccccc5c4)C3)ccc2o1` [Example I-295], the IC50 was greater than 100 µM.
For `CN(C)C(=O)c1cc2ccc(C3=CCCN(C(=O)CCn4ccnn4)C3)nc2[nH]1` [Example I-196], the IC50 was 10 to 100 µM.
`COC(=O)[C@H]1CC[C@@H](c2ccc3oc(C(=O)N(C)C)cc3c2)CN1C(=O)CCn1ccnn1` (single isomer, unassigned) [Example I-151] was tested, and the IC50 was greater than 100 µM.
`CN(C)C(=O)c1cc2ccc(C3=CCCN(C(=O)C4NCCc5ccccc54)C3)cc2[nH]1` (stereo not shown) [Example I-60] gave an IC50 greater than 100 µM.
With `CN(C)C(=O)c1cc2ccc(C3=CCCN(C(=O)c4cccnc4CS(C)(=O)=O)C3)cc2[nH]1` [Example I-69] the IC50 was greater than 100 µM.
`CN(C)C(=O)c1cc2ccc(C3=CCCN(C(=O)c4cccnc4-c4ccc(F)c(F)c4)C3)cc2[nH]1` [Example I-137] showed an IC50 greater than 100 µM.
For `CNc1ccc(-c2cc(C3=CCCN(C(=O)CCn4ccnn4)C3)cc3[nH]c(C(=O)N(C)C)cc23)c(OC)c1` [Example I-117], the IC50 was less than 0.1 µM.
`CN(C)C(=O)c1cc2cc(C3=CCCN(C(=O)Cc4cnccn4)C3)ccc2o1` [Example I-246] gave an IC50 greater than 100 µM.
`CN(C)C(=O)c1cc2ccc(C3=CCCN(C(=O)CCc4nn[nH]n4)C3)cc2[nH]1` [Example I-15] showed an IC50 of 10 to 100 µM.
With `CN(C)C(=O)c1cc2cc(C3=CCCN(C(=O)C4c5ccccc5CCN4C)C3)ccc2o1` (stereo not shown) [Example I-208] the IC50 was greater than 100 µM.
Work on `C[C@@H](Cn1ccnn1)C(=O)N1CCC=C(c2ccc3oc(C(=O)N(C)C)cc3c2)C1` (single isomer, unassigned) [Example I-229] yielded an IC50 greater than 100 µM.
Work on `Cc1cc(CC(=O)N2CCC=C(c3ccc4cc(C(=O)N(C)C)[nH]c4c3)C2)on1` [Example I-133] yielded an IC50 greater than 100 µM.
Work on `CN(C)C(=O)c1cc2ccc(C3=CCCN(C(=O)Cc4cccc(OCc5ccccc5)c4)C3)cc2[nH]1` [Example I-107] yielded an IC50 of 0.1 to 1 µM.
In the case of `Cc1cc(Cl)c(S(C)(=O)=O)cc1C(=O)N1CCC=C(c2ccc3cc(C(=O)N(C)C)[nH]c3c2)C1` [Example I-74], the IC50 is reported as 10 to 100 µM.
`CC(=O)NC(Cn1ccnn1)C(=O)N1CCC=C(c2ccc3oc(C(=O)N(C)C)cc3c2)C1` (stereo not shown) [Example I-178] gave an IC50 greater than 100 µM.
In the case of `CN(C)C(=O)c1cc2cc(C3=CCCN(C(=O)Cc4ccc5ncnn5c4)C3)ccc2o1` [Example I-286], the IC50 is reported as greater than 100 µM.
In the case of `CN(C)C(=O)c1cc2cc(C3=CCCN(C(=O)Cc4ccncn4)C3)ccc2o1` [Example I-270], the IC50 is reported as greater than 100 µM.
Work on `CN(C)C(=O)c1cc2ccc(C3=CCCN(C(=O)Cn4ccccc4=O)C3)cc2[nH]1` [Example I-316] yielded an IC50 greater than 100 µM.
For `CN(C)C(=O)c1cc2ccc(C3=CCCN(C(=O)CN4C(=O)COc5ccccc54)C3)cc2[nH]1` [Example I-79], the IC50 was 10 to 100 µM.
`CCC(=O)N1Cc2ccccc2CC1C(=O)N1CCC=C(c2ccc3oc(C(=O)N(C)C)cc3c2)C1` (stereo not shown) [Example I-189] gave an IC50 greater than 100 µM.
`CN(C)C(=O)c1ccc2c(C3=CCCN(C(=O)CCn4ccnn4)C3)c[nH]c2c1` [Example I-317] gave an IC50 greater than 100 µM.
Work on `CN(C)C(=O)c1cc2ccc(C3=CCCN(C(=O)C4(c5ccc(C(F)(F)F)cc5)CC4)C3)cc2[nH]1` [Example I-84] yielded an IC50 greater than 100 µM.
For `CN(C)C(=O)c1cc2ccc(C3=CCCN(C(=O)C4(c5ccccc5)CCC(=O)NC4)C3)cc2[nH]1` (stereo not shown) [Example I-87], the IC50 was 10 to 100 µM.
`CN(C)C(=O)c1cc2ccc(C3=CCCN(C(=O)CCn4ccnn4)C3)c(F)c2[nH]1` [Example I-304] was tested, and the IC50 was less than 0.1 µM.
`O=C(CCn1ccnn1)N1CCC=C(c2ccc3oc(C(=O)N4CCCCC4)cc3c2)C1` [Example I-128] showed an IC50 of 10 to 100 µM.
Work on `CN(C)C(=O)c1cc2cc([C@H]3CN(C(=O)CCn4ccnn4)CC[C@@H]3O)ccc2o1` (single isomer, unassigned) [Example I-210] yielded an IC50 greater than 100 µM.
`CN(C)C(=O)c1nc2cc(C3=CCCN(C(=O)CCn4ccnn4)C3)ccc2o1` [Example I-214] showed an IC50 greater than 100 µM.
With `CN(C)C(=O)c1cc2ccc(C3=CCCN(C(=O)CCCn4c(=O)[nH]c5ccccc54)C3)cc2[nH]1` [Example I-85] the IC50 was greater than 100 µM.
With `Cc1cnnn1CCC(=O)N1CCC=C(c2ccc3cc(C(=O)N(C)C)[nH]c3c2)C1` [Example I-12] the IC50 was 10 to 100 µM.
`CN(C)C(=O)c1cc2ccc(C3=CCCN(C(=O)CC(c4ccccc4)c4ccccc4)C3)cc2[nH]1` [Example I-91] was tested, and the IC50 was 10 to 100 µM.
Molecule `CN(C)C(=O)c1cc2ccc(C3=CCCN(C(=O)c4ccccc4CSc4ccccc4)C3)cc2[nH]1` [Example I-92] has an IC50 of 10 to 100 µM.
With `CNc1ccc(-c2cc(C3=CCCN(C(=O)CCn4ccnn4)C3)cc3cc(C(=O)N(C)C)oc23)cc1` [Example I-204] the IC50 was greater than 100 µM.
`C[C@@H](O)C(=O)N1CCC=C(c2ccc3cc(C(=O)N(C)C)[nH]c3c2)C1` [Example I-24] was tested, and the IC50 was 10 to 100 µM.
